We go through 9 compounds from PubChem BioAssay (NCI).

Among the test systems are HCC-2998 colon; MDA-MB-435; HCT-116 colon; OVCAR-3 ovarian; SK-OV-3 ovarian; MALME-3M melanoma; RPMI-8226 leukemia; HS 578T breast; MDA-MB-231 breast; A549 NSCLC.
Holding throughout (test): growth of human tumour cells (NCI), 48 h

Molecules are shown by their SMILES. Where “and” joins values, the source holds several entries; their conditions need not be identical. Equal entries are not always repeated.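 A five-concentration, 48-hour dose response in 96-well plates underlies each endpoint, interpolated linearly between surrounding concentrations. GI50 = concentration required for 50% inhibition of growth. The concentration for full growth arrest is given as TGI.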

`COc1cc(-c2nn(-c3cccc(NC(=O)Nc4cc(C(F)(F)F)cc(C(F)(F)F)c4)c3)cc2-c2ccncc2)ccc1Cl`: the GI50 with HCC-2998 colon was 1.09 µM; in the experiment on MDA-MB-435, 0.772 µM; in the experiment on HCT-116 colon, 0.442 µM; in the experiment with OVCAR-3 ovarian, 0.293 µM; with SK-OV-3 ovarian, 1.16 µM; with MALME-3M melanoma it was 0.677 µM. Further, the GI50 in the experiment with RPMI-8226 leukemia is 0.203 µM; in the experiment on HS 578T breast, 1.16 µM; with MDA-MB-231 breast, 0.675 µM; in the experiment on A549 NSCLC it was 0.438 µM. Further, the TGI in the experiment on HCC-2998 colon is 2.65 µM; in the experiment on MDA-MB-435, 1.85 µM; in the experiment on HCT-116 colon, 2.44 µM; in the experiment on OVCAR-3 ovarian it was 1.07 µM; in the experiment on SK-OV-3 ovarian it was 2.87 µM; in the experiment with MALME-3M melanoma it was 2 µM. For the same compound, the TGI in the experiment on RPMI-8226 leukemia worked out at 7.74 µM; with HS 578T breast it was 8.81 µM; with MDA-MB-231 breast, 1.43 µM; in the experiment on A549 NSCLC it was 2.8 µM.

Consider `O=C1C(=O)c2ccccc2C(O)=C1CC=C(Br)Br`, for which the GI50 in the experiment on HCC-2998 colon is 18.6 µM; in the experiment with MDA-MB-435, 5.26 µM; in the experiment with HCT-116 colon, 0.887 µM; with OVCAR-3 ovarian, 8.75 µM; in the experiment on SK-OV-3 ovarian, 10.5 µM; in the experiment on MALME-3M melanoma, 18.2 µM. In addition, the GI50 was 1.57 µM in the experiment on RPMI-8226 leukemia, 10.6 µM in the experiment with HS 578T breast, 8.98 µM in the experiment with MDA-MB-231 breast and 2.82 µM in the experiment on A549 NSCLC. In addition, the TGI in the experiment on HCC-2998 colon is over 100 µM; in the experiment with MDA-MB-435 it was 98 µM; in the experiment with HCT-116 colon, over 100 µM; in the experiment on OVCAR-3 ovarian it was 34.7 µM; in the experiment with SK-OV-3 ovarian, 59.8 µM; in the experiment with MALME-3M melanoma, 60.4 µM. Also, the TGI in the experiment on RPMI-8226 leukemia stood at 31.1 µM; with HS 578T breast, 56 µM; with MDA-MB-231 breast, 27 µM; in the experiment with A549 NSCLC it was 62.2 µM.

Take `CC(C)(C)c1nn(-c2ccccc2)c2c1C(=O)CSC(c1ccccc1Cl)N2` (stereo not given): the GI50 in the experiment with HCC-2998 colon is 2.08 µM; in the experiment with MDA-MB-435, 0.304 µM; in the experiment with HCT-116 colon, 1.9 µM; in the experiment on OVCAR-3 ovarian it was 1.37 µM; in the experiment on SK-OV-3 ovarian, 1.78 µM; with MALME-3M melanoma it was 14.7 µM. Besides, the GI50 in the experiment on RPMI-8226 leukemia is 3.02 µM; in the experiment on HS 578T breast, 1.26 µM; with MDA-MB-231 breast, 3.57 µM; in the experiment with A549 NSCLC, 1.67 µM. Besides, the TGI with HCC-2998 colon stood at 7.51 µM; with MDA-MB-435, 1.31 µM; with HCT-116 colon, 12 µM; with OVCAR-3 ovarian, 6.37 µM; with SK-OV-3 ovarian, 6.17 µM; in the experiment with MALME-3M melanoma, 32.6 µM. For the same compound, the TGI with RPMI-8226 leukemia was found to be 19.3 µM; in the experiment on HS 578T breast, 7.22 µM; in the experiment on MDA-MB-231 breast, 16 µM; in the experiment with A549 NSCLC it was 14 µM.

Take `Cc1c(-c2c(-c3ccc(F)o3)sc3ncnc(O[C@H](Cc4ccccc4OCc4ccnn4CC(F)(F)F)C(=O)O)c23)ccc(OCCN2CCN(C)CC2)c1Cl`: the GI50 is 3.48 µM with HCC-2998 colon; 1.89 µM in the experiment on MDA-MB-435; 3.9 µM with HCT-116 colon; 3.82 µM with OVCAR-3 ovarian; 5.74 µM in the experiment on SK-OV-3 ovarian; 3.37 µM in the experiment on MALME-3M melanoma. Also, the GI50 in the experiment with RPMI-8226 leukemia was under 0.0147 µM; in the experiment on HS 578T breast it was 1.53 µM; in the experiment with MDA-MB-231 breast, 3.8 µM; with A549 NSCLC it was 13.4 µM. For the same compound, the TGI in the experiment on HCC-2998 colon came to 7.57 µM; with MDA-MB-435, 6.37 µM; in the experiment on HCT-116 colon, 9.23 µM; in the experiment with OVCAR-3 ovarian, 7.67 µM; in the experiment with SK-OV-3 ovarian, 14.8 µM; with MALME-3M melanoma, 7.52 µM. Also, the TGI with RPMI-8226 leukemia amounted to 0.261 µM; in the experiment on HS 578T breast, 9.42 µM; with MDA-MB-231 breast, 7.84 µM; in the experiment on A549 NSCLC, 26.9 µM.

`O=C(CN1CCN(CCCOc2c(-c3ccccc3)oc3ccccc3c2=O)CC1)Nc1ccc(Cl)cc1C(=O)c1ccccc1Cl`: the GI50 with HCC-2998 colon was 2.26 µM; with MDA-MB-435 it was 4.13 µM; in the experiment on HCT-116 colon, 4.44 µM; in the experiment on OVCAR-3 ovarian it was 5.79 µM; in the experiment with SK-OV-3 ovarian it was 15.1 µM; with MALME-3M melanoma, 4 µM. Moreover, the GI50 was 2.59 µM with RPMI-8226 leukemia, 8.45 µM in the experiment on HS 578T breast, 4.26 µM in the experiment on MDA-MB-231 breast and 6.37 µM in the experiment with A549 NSCLC. In addition, the TGI amounted to 4.23 µM with HCC-2998 colon; 17 µM in the experiment with MDA-MB-435; 16.6 µM with HCT-116 colon; 19.5 µM in the experiment with OVCAR-3 ovarian; 54.2 µM in the experiment with SK-OV-3 ovarian; 8.91 µM with MALME-3M melanoma. Besides, the TGI with RPMI-8226 leukemia was 7.14 µM; with HS 578T breast it was 60.8 µM; in the experiment with MDA-MB-231 breast, 19.3 µM; with A549 NSCLC, over 100 µM.

Take `COc1ncc(-c2ccc3nccc(-c4ccnnc4)c3c2)cc1NS(=O)(=O)c1ccc(F)cc1F`: the GI50 in the experiment with HCC-2998 colon is 0.00997 µM and 0.0133 µM; with MDA-MB-435, 0.0105 µM and < 0.0117 µM; in the experiment on HCT-116 colon it was 0.0155 µM; with OVCAR-3 ovarian, 0.00901 µM and < 0.0109 µM; in the experiment with SK-OV-3 ovarian, 0.00188 µM and < 0.01 µM; with MALME-3M melanoma, 0.00473 µM and < 0.01 µM. Moreover, the GI50 is 0.0321 µM and 0.0297 µM with RPMI-8226 leukemia; 0.00212 µM and < 0.01 µM in the experiment with HS 578T breast; 0.0392 µM and 0.0439 µM in the experiment on MDA-MB-231 breast; 0.00882 µM and < 0.01 µM with A549 NSCLC. The TGI in the experiment on HCC-2998 colon was 0.275 µM and 0.572 µM; in the experiment on MDA-MB-435, 1.13 µM and 0.863 µM; with HCT-116 colon, 2.31 µM and 1.55 µM; in the experiment on OVCAR-3 ovarian, 0.763 µM and 0.376 µM; in the experiment on SK-OV-3 ovarian it was 0.0204 µM and 0.0377 µM; in the experiment with MALME-3M melanoma it was 0.114 µM and 0.0222 µM. In addition, the TGI is 0.656 µM and 0.963 µM in the experiment on RPMI-8226 leukemia; 0.0433 µM and 0.023 µM in the experiment with HS 578T breast; 1.83 µM in the experiment with MDA-MB-231 breast; 1.49 µM and 1.32 µM in the experiment on A549 NSCLC.

As to `O=C(/C=C/c1cccnc1)NCCCCC1CCCN(C(=O)c2ccccc2)C1` (stereo not given), the GI50 was 0.974 µM in the experiment on HCC-2998 colon; under 0.01 µM in the experiment on MDA-MB-435; under 0.01 µM in the experiment on HCT-116 colon; over 47.9 µM with OVCAR-3 ovarian; over 91.7 µM with SK-OV-3 ovarian; over 44.5 µM with MALME-3M melanoma. In addition, the GI50 with RPMI-8226 leukemia is under 0.01 µM; in the experiment on HS 578T breast it was 4.45 µM; in the experiment on MDA-MB-231 breast, over 100 µM; in the experiment with A549 NSCLC, 0.0752 µM. The TGI with HCC-2998 colon, with MDA-MB-435, with HCT-116 colon, with OVCAR-3 ovarian, with SK-OV-3 ovarian and in the experiment on MALME-3M melanoma was over 100 µM in each case. The TGI in the experiment on RPMI-8226 leukemia, in the experiment on HS 578T breast, in the experiment with MDA-MB-231 breast and with A549 NSCLC was over 100 µM throughout.

As to `COc1ccc(-n2nnnc2-c2c[nH]c3c(F)cc(F)cc23)cc1`, the GI50 with HCC-2998 colon is over 100 µM; in the experiment with MDA-MB-435 it was over 100 µM; in the experiment with HCT-116 colon it was over 100 µM; in the experiment with OVCAR-3 ovarian it was over 100 µM; in the experiment with SK-OV-3 ovarian, 34.7 µM; in the experiment with MALME-3M melanoma, over 100 µM. Besides, the GI50 is over 100 µM in the experiment on RPMI-8226 leukemia, over 100 µM with HS 578T breast, 27.1 µM in the experiment on MDA-MB-231 breast and over 100 µM in the experiment on A549 NSCLC. Also, the TGI in the experiment with HCC-2998 colon, in the experiment on MDA-MB-435, with HCT-116 colon, with OVCAR-3 ovarian, in the experiment on SK-OV-3 ovarian and in the experiment on MALME-3M melanoma was over 100 µM throughout. In addition, the TGI with RPMI-8226 leukemia, with HS 578T breast, in the experiment on MDA-MB-231 breast and in the experiment on A549 NSCLC was over 100 µM each time.

Turning to `C=C(CN1C(=O)[C@H]2CCCN2C(=O)c2ccccc21)c1ccc(C(=O)O)cc1`, the GI50 in the experiment with HCC-2998 colon, in the experiment with MDA-MB-435, in the experiment with HCT-116 colon, with OVCAR-3 ovarian, with SK-OV-3 ovarian and in the experiment with MALME-3M melanoma was over 100 µM in each case. Besides, the GI50 with RPMI-8226 leukemia, in the experiment with HS 578T breast, in the experiment with MDA-MB-231 breast and with A549 NSCLC was over 100 µM in each case. The TGI in the experiment with HCC-2998 colon, with MDA-MB-435, in the experiment with HCT-116 colon, in the experiment on OVCAR-3 ovarian, in the experiment on SK-OV-3 ovarian and in the experiment with MALME-3M melanoma was over 100 µM in each case. The TGI in the experiment with RPMI-8226 leukemia, in the experiment on HS 578T breast, in the experiment with MDA-MB-231 breast and with A549 NSCLC was over 100 µM in each case.
